{"source": "patent US20090131327A1", "about": "“NOGO RECEPTOR FUNCTIONAL MOTIFS AND PEPTIDE MIMETICS RELATED THERETO AND METHODS OF USING THE SAME” (priority 2005, published 2009)", "key": {"myelin": {"test_system": "myelin", "experiment": "Antagonism of the inhibitory activity of myelin (data not shown)", "format": "cell-based"}, "cerebellar neurons [1]": {"test_system": "cerebellar neurons", "experiment": "Neurite outgrowth assay: antagonism of MAG-Fc-mediated inhibition of neurite outgrowth, neurons over 3T3 monolayers", "format": "cell-based, rat", "conditions": "MAG-Fc 20 μg/ml; for antagonism of MAG-Fc inhibition of neurite outgrowth: peptide 100 μg/ml, ~23-27 hr, FIG. 2; for peptide concentration with maximal promotion of neurite outgrowth / peptide concentration with significant promotion of neurite outgrowth: FIG. 5; for antagonism of inhibitory activity of MAG-Fc: peptide 50 μg/ml (60 μM)"}, "cerebellar neurons [2]": {"test_system": "cerebellar neurons", "experiment": "Neurite outgrowth assay: substance alone in coculture media, neurons over 3T3 monolayers", "format": "cell-based, rat", "conditions": "without MAG-Fc; for effect on neurite outgrowth in control media: peptide alone", "experimental": "(§1) Cerebellar neurons isolated from postnatal day 2/3 rat pups were cultured over monolayers of 3T3 cells (Doherty et al. (1991) Neuron 6(2):247-58) essentially as previously described (Williams et al. (1994) Neuron 13(3):583-94). Monolayers were established by seeding ˜80,000 cells into individual chambers of an eight-chamber tissue culture slide coated with poly-L-lysine and fibronectin. The cell lines, and monolayers, were maintained in Dulbecco's modified Eagle's medium supplemented with 10% fetal calf serum (FCS). Cocultures were established by removing the media from the monolayers and seeding ˜6000 dissociated cerebellar neurons into each well in SATO medium (modified from Doherty et al. (1990) Neuron 5(2):209-19; Dulbecco's modified Eagle's medium supplemented with 2% FBS, 33% bovine albumin, 0.62 μg/ml progesterone, 161 μg/ml putrescine, 4 μg/ml L-thyroxine, 0.387 μg/ml selenium, and 3.37 μg/ml tri-iodo-thyronine (components from Sigma-Aldrich, St. Louis, Mo.)). Monolayers were established for 24 hours prior to addition of the neurons and the cultures were maintained for ˜23-27 hr. Following careful fixation with 4% paraformaldehyde, the neurons were immunostained with a GAP-43 antibody, and the mean length of the longest neurite per cell was measured for ˜120-150 neurons, again as previously described (Williams et al. (1994) Neuron 13(3):583-94).\n(§2) Synthetic peptides were all obtained from a commercial supplier (Multiple Peptide Systems, San Diego, Calif.). All peptides were purified to the highest grade by reverse-phase HPLC and obtained at the highest level of purity (>97%). With all peptides, there was no indication of higher molecular weight species. Where peptide sequences are underlined, this denotes a peptide that has been cyclized via a disulfide bond between the given cysteine residues. All peptides were acetylated (e.g., denoted with “N—Ac—”) and amide blocked (e.g., denoted with “—NH2”). Recombinant MAG-Fc chimera was obtained from R&D Systems (Minneapolis, Minn.) and used at final concentrations ranging from 5-25 μg/ml. The monoclonal antibody to GT1b (clone GMR5) was obtained from Seikagaku America (Falmouth, Mass.) and was used at a final concentration of 20 μg/ml. All reagents were diluted into the coculture media and, in general, added to the cultures just prior to the plating of the neurons.\nMAG was the first inhibitory component of myelin to be identified based on its ability to inhibit neurite outgrowth from postnatal rat cerebellar neurons (Mukhopadhyay et al. (1994) Neuron 13(3):757-67). […] NgR1 function is required for MAG inhibition of neurite outgrowth (Domeniconi et al. (2002) Neuron 35(2):283-90; Liu et al. (2002) Science 297:1190-93). […]"}, "cerebellar neurons [3]": {"test_system": "cerebellar neurons", "experiment": "Neurite outgrowth assay: antagonism of MAG-Fc-mediated inhibition of neurite outgrowth, neurons over 3T3 monolayers", "format": "cell-based, rat", "conditions": "for effectiveness in antagonizing MAG inhibition relative to NRL2: compared with parental peptide NRL2", "experimental": "as §1, §2\nMAG was the first inhibitory component of myelin to be identified based on its ability to inhibit neurite outgrowth from postnatal rat cerebellar neurons (Mukhopadhyay et al. (1994) Neuron 13(3):757-67). […] NgR1 function is required for MAG inhibition of neurite outgrowth (Domeniconi et al. (2002) Neuron 35(2):283-90; Liu et al. (2002) Science 297:1190-93). Consequently, in order to determine if the mimetic peptides could antagonize, (e.g., reverse, decrease, reduce, prevent, etc.) NgR1 function (e.g., reverse NgR1-ligand-mediated inhibition of axonal growth), the peptides were tested for their ability to antagonize MAG-mediated inhibition of axonal growth. […] The ability of the NRL peptides to antagonize MAG-mediated inhibition of axonal growth was tested in a number of independent experiments. […] In order to evaluate the efficacy of the NRL2 peptide, the ability of various concentrations of NRL2 to overcome the inhibitory activity of 25 μg/ml of the soluble MAG-Fc chimera was tested. Results obtained from at least three independent experiments have been pooled to generate FIG. 3."}, "cerebellar neurons [4]": {"test_system": "cerebellar neurons", "experiment": "Neurite outgrowth assay: antagonism of inhibition by anti-GT1b antibody", "format": "cell-based, rat", "conditions": "peptide 100 μg/ml; anti-GT1b up to 40 μg/ml; FIG. 4", "experimental": "Cerebellar neurons isolated from postnatal day 2/3 rat pups were cultured over monolayers of 3T3 cells (Doherty et al. (1991) Neuron 6(2):247-58) essentially as previously described (Williams et al. (1994) Neuron 13(3):583-94). Monolayers were established by seeding ˜80,000 cells into individual chambers of an eight-chamber tissue culture slide coated with poly-L-lysine and fibronectin. The cell lines, and monolayers, were maintained in Dulbecco's modified Eagle's medium supplemented with 10% fetal calf serum (FCS). Cocultures were established by removing the media from the monolayers and seeding ˜6000 dissociated cerebellar neurons into each well in SATO medium (modified from Doherty et al. (1990) Neuron 5(2):209-19; Dulbecco's modified Eagle's medium supplemented with 2% FBS, 33% bovine albumin, 0.62 μg/ml progesterone, 161 μg/ml putrescine, 4 μg/ml L-thyroxine, 0.387 μg/ml selenium, and 3.37 μg/ml tri-iodo-thyronine (components from Sigma-Aldrich, St. Louis, Mo.)). Monolayers were established for 24 hours prior to addition of the neurons and the cultures were maintained for ˜23-27 hr. Following careful fixation with 4% paraformaldehyde, the neurons were immunostained with a GAP-43 antibody, and the mean length of the longest neurite per cell was measured for ˜120-150 neurons, again as previously described (Williams et al. (1994) Neuron 13(3):583-94). […]"}}, "note": "Where “and” joins values, the source holds several entries; their conditions need not be identical. Equal values may be shown once. Entries after “also recorded” stand apart in the source; their conditions may differ. Positions of bridges follow the written chain, without caps; N, C: chain ends."}
{"substance": "Ac-CTDIKGKEC-NH2 (cysteine pairing not given here)", "values": [{"measurement": "antagonism of the inhibitory activity of myelin", "setting": "myelin", "value": "do not antagonize"}]}
{"substance": "N-Ac c[sGrfkq]-NH2 (XGXXXX; not fully specified; cyclised or stapled) [hriNRL2]", "values": [{"measurement": "reversal of MAG-mediated inhibition of neurite outgrowth", "setting": "cerebellar neurons [1]; increasing peptide concentrations, FIG. 6", "value": "reverse MAG-mediated inhibition of neurite outgrowth"}]}
{"substance": "N-Ac-CAGRDLKRC-NH2 (disulfide 1-9; SMILES CC(=O)N[C@H]1CSSC[C@@H](C(N)=O)NC(=O)[C@H](CCCNC(=N)N)NC(=O)[C@H](CCCCN)NC(=O)[C@H](CC(C)C)NC(=O)[C@H](CC(=O)O)NC(=O)[C@H](CCCNC(=N)N)NC(=O)CNC(=O)[C@H](C)NC1=O) [NRL4]", "values": [{"measurement": "antagonism of MAG-Fc inhibition of neurite outgrowth", "setting": "cerebellar neurons [1]", "value": "MAG-Fc also substantially inhibited neurite outgrowth"}]}
{"substance": "N-Ac-CKFRGSC-NH2 (disulfide 1-7; SMILES CC(=O)N[C@H]1CSSC[C@@H](C(N)=O)NC(=O)[C@H](CO)NC(=O)CNC(=O)[C@H](CCCNC(=N)N)NC(=O)[C@H](Cc2ccccc2)NC(=O)[C@H](CCCCN)NC1=O) [NRL2a]", "values": [{"measurement": "effect on neurite outgrowth in control media", "setting": "cerebellar neurons [2]", "value": "no effect"}, {"measurement": "peptide concentration with maximal promotion of neurite outgrowth", "setting": "cerebellar neurons [1]", "value": "50 μg/ml and 60 μM"}, {"measurement": "peptide concentration with significant promotion of neurite outgrowth", "setting": "cerebellar neurons [1]", "value": "25 μg/ml and 30 μM"}, {"measurement": "antagonism of inhibitory activity of MAG-Fc", "setting": "cerebellar neurons [1]", "value": "effectively antagonized"}, {"measurement": "effectiveness in antagonizing MAG inhibition relative to NRL2", "setting": "cerebellar neurons [3]", "value": "as effective as NRL2"}, {"measurement": "effectiveness in antagonizing MAG inhibition relative to NRL2", "setting": "cerebellar neurons [3]; listed as N-Ac-CKFRGSC-NH2", "value": "as effective as the longer parental peptide"}]}
{"substance": "N-Ac-CLQKFRGSSC-NH2 (disulfide 1-10; SMILES CC(=O)N[C@H]1CSSC[C@@H](C(N)=O)NC(=O)[C@H](CO)NC(=O)[C@H](CO)NC(=O)CNC(=O)[C@H](CCCNC(=N)N)NC(=O)[C@H](Cc2ccccc2)NC(=O)[C@H](CCCCN)NC(=O)[C@H](CCC(N)=O)NC(=O)[C@H](CC(C)C)NC1=O) [NRL2]", "values": [{"measurement": "antagonism of inhibitory effects of anti-GT1b antibody", "setting": "cerebellar neurons [4]", "value": "reversed; also recorded: just as effective"}, {"measurement": "effect on neurite outgrowth in control media", "setting": "cerebellar neurons [2]", "value": "no effect"}, {"measurement": "effect on control neurite outgrowth", "setting": "cerebellar neurons [2]; tested at up to 200 μg/ml, FIG. 3", "value": "little effect"}, {"measurement": "antagonism of MAG-Fc inhibition of neurite outgrowth", "setting": "cerebellar neurons [1]", "value": "largely antagonized"}, {"measurement": "activity as MAG antagonist (summary in discussion)", "setting": "cerebellar neurons [3]; four disulfide-constrained NgR1 loop peptides", "value": "effective MAG antagonist"}]}
{"substance": "N-Ac-CQKFRGC-NH2 (disulfide 1-7; SMILES CC(=O)N[C@H]1CSSC[C@@H](C(N)=O)NC(=O)CNC(=O)[C@H](CCCNC(=N)N)NC(=O)[C@H](Cc2ccccc2)NC(=O)[C@H](CCCCN)NC(=O)[C@H](CCC(N)=O)NC1=O) [NRL2b]", "values": [{"measurement": "effect on neurite outgrowth in control media", "setting": "cerebellar neurons [2]", "value": "no effect"}, {"measurement": "peptide concentration with maximal promotion of neurite outgrowth", "setting": "cerebellar neurons [1]", "value": "50 μg/ml and 60 μM"}, {"measurement": "peptide concentration with significant promotion of neurite outgrowth", "setting": "cerebellar neurons [1]", "value": "25 μg/ml and 30 μM"}, {"measurement": "antagonism of inhibitory activity of MAG-Fc", "setting": "cerebellar neurons [1]", "value": "effectively antagonized"}, {"measurement": "effectiveness in antagonizing MAG inhibition relative to NRL2", "setting": "cerebellar neurons [3]", "value": "as effective as NRL2"}, {"measurement": "effectiveness in antagonizing MAG inhibition relative to NRL2", "setting": "cerebellar neurons [3]; listed as N-Ac-CQKFRGC-NH2", "value": "as effective as the longer parental peptide"}]}
{"substance": "N-Ac-CSLPQRLAC-NH2 (disulfide 1-9; SMILES CC(=O)N[C@H]1CSSC[C@@H](C(N)=O)NC(=O)[C@H](C)NC(=O)[C@H](CC(C)C)NC(=O)[C@H](CCCNC(=N)N)NC(=O)[C@H](CCC(N)=O)NC(=O)[C@@H]2CCCN2C(=O)[C@H](CC(C)C)NC(=O)[C@H](CO)NC1=O) [NRL3]", "values": [{"measurement": "antagonism of MAG-Fc inhibition of neurite outgrowth", "setting": "cerebellar neurons [1]", "value": "MAG-Fc also substantially inhibited neurite outgrowth"}]}
{"substance": "N-Ac-CYNEPKVTC-NH2 (disulfide 1-9; SMILES CC(=O)N[C@H]1CSSC[C@@H](C(N)=O)NC(=O)[C@H]([C@@H](C)O)NC(=O)[C@H](C(C)C)NC(=O)[C@H](CCCCN)NC(=O)[C@@H]2CCCN2C(=O)[C@H](CCC(=O)O)NC(=O)[C@H](CC(N)=O)NC(=O)[C@H](Cc2ccc(O)cc2)NC1=O) [NRL1]", "values": [{"measurement": "antagonism of MAG-Fc inhibition of neurite outgrowth", "setting": "cerebellar neurons [1]", "value": "MAG-Fc also substantially inhibited neurite outgrowth"}]}
{"substance": "NGF: nerve growth factor", "values": [{"measurement": "antagonism of the inhibitory activity of myelin", "setting": "myelin", "value": "do not antagonize"}]}
